# Bridge positions count the residues as written; N and C are the ends. Square brackets hold non-standard residues; d marks the D form. Peptide text beside a SMILES is read from it. * marks the point of attachment. Palmitoyl = CCCCCCCCCCCCCCCC(=O)*; Dab = NCC[C@H](N)C(=O)O; Dap = NC[C@H](N)C(=O)O; AEEA = NCCOCCOCC(=O)O
# Assays:
# [1] = Plasma concentration of respective natriuretic peptide by ELISA after SC bolus in CD-1 mice (pharmacokinetics, Table 3); conditions: male, CD-1, mouse, in vivo, sc, 1 mg/kg
# In short: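 Peptides given SC in sterile water; retro-orbital blood at 2 and 6 h post-dose (two bleeds per mouse), K2EDTA plasma. Plasma cGMP by commercial immunoassay kit; ANP, BNP or CNP plasma levels by peptide-specific ELISA.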
# [2] = mouse, in vivo, sc, 1 mg/kg
# Protocol: FIGS. 1A-1B: PK/PD Profiles for single subcutaneous (SC) injection of native CNP (SEQ ID NO: 32), SEQ ID NO: 31, and SEQ ID NO: 29 at 1.0 mg/kg (0.45, 0.33, and 0.33 μmol/kg, respectively) in mice. Error bars represent standard error of the mean. FIG. 1A) Plasma CNP [mean (SEM); n=5] in CD-1 mice after subcutaneous administration of 1.0 mg/kg of native CNP (SEQ ID NO: 32), SEQ ID NO: 31, and SEQ ID NO: 29 (0.45, 0.33, and 0.33 μmol/kg, respectively) in buffer. […] Plasma CNP in CD-1 mice was measured by CNP ELISA kit from Phoenix Pharmaceuticals (EKE-012-03, Burlingame, CA).
# The animals were kept in PharmaIN animal facility with controlled temperature (68-74° F.) and humidity (30-60%), and a 12-hour light/dark cycle. […] Lead buffer was used to formulate or dissolve all test articles on the day of administration. […] Biochemical analysis: For pharmacokinetic study, plasma aliquots were thawed at 4° C. then analyzed using a commercially available CNP ELISA kit from Phoenix Pharmaceuticals (cat #EKE-012-03), which detects the cyclic structure of CNP and all CNP derivatives with the same level of reactivity to the ELISA kit. […] For pharmacodynamic or bioactivity study of cGMP, plasma aliquots were thawed at 4° C. then analyzed using a commercially available cGMP kit from Abcam (ab133052, Waltham, MA).
# [3] = tested on: E0771 breast cancer cells; test: Orthotopic mouse model of breast cancer using E0771 cells (FIG. 6); type: in vivo, mice; conditions: 0.3 mg/kg (0.1 μmol/kg) SC once daily, 5 days on, 2 days off, 3 cycles
# Protocol: Error bars represent standard error of the mean. FIG. 6A) Tumor growth kinetics of 6-week-old female C57BL/6J mice (n=10 per group) that were inoculated with E0771 breast cancer cells (250,000 cells/mouse) in the mammary gland. Starting from Day 4 post-inoculation, cationic alkyl modified CNP derivatives (SEQ ID NO: 29, 30, and 31) were administered subcutaneously at a bolus dose of 0.3 mg/kg (0.1 μmol/kg) once daily for 5 days (5 days on, 2 days off) for 3 cycles; dose days indicated by gridlines. The control group, which received only buffer, was dosed in the same manner to establish the baseline tumor growth kinetics. […] Therefore, it can be concluded that the attachment of CNP is important for the observed anti-tumor activity. Statistical analysis was based on Dunnett's test performed by using GraphPad (n=10, 10, 10, and 10; Control, SEQ ID NO: 29, SEQ ID NO: 30, and SEQ ID NO: 31) **** P<0.0001 vs Control group.
# Therefore, it can be concluded that the attachment of CNP is essential for anti-tumor activity. […] Animal care and treatment: Female C57BL/6J mice (6 weeks-old) were purchased from Kyudo (Saga, Japan) and maintained under a 12-hour light/12-hour dark cycle with free access to water and standard mouse diet (MF diet, Oriental Yeast Co., Ltd. Tokyo, Japan or PicoLab Rodent Diet 20, LabDiet Corp., St. Louis, Missouri). Implantation and drug administration: Mice were implanted with E0771 breast cancer cells (250,000 cells/mouse; Cosmo Bio Tokyo, Japan) in their left mammary gland and were randomized into groups of n=10. Starting from Day 4 post-inoculation, cationic alkyl modified CNP derivatives (SEQ ID NOs: 29, 30, and 31) were administered subcutaneously at a bolus dose of 0.3 mg/kg (0.1 μmol/kg; with a dose volume of 10 mL/kg) in sterile water for injection (Otsuka Pharmaceutical, Tokushima, Japan) once daily for 5 days (5 days on, 2 days off) for 3 cycles. The control group, which received only buffer, was dosed in the same manner to establish the baseline tumor growth kinetics. Tumor sizes were measured using calipers. Statistical analysis was based on Dunnett's test performed by using GraphPad (n=10, 10, 10, and 10; Control, SEQ ID NO: 29, SEQ ID NO: 30, and SEQ ID NO: 31) **** P<0.0001 vs Control group.
SMILES,level at 2 h [1] [ng/mL],level at 6 h [1] [ng/mL],Increase of baseline plasma CNP levels [2],Tumor volume compared to the Control group [3]
CCCCCCCCCCCCCCCC(=O)NCCOCCOCC(=O)NCCOCCOCC(=O)NCCOCCOCC(=O)N[C@@H](CN)C(=O)N[C@@H](CN)C(=O)NCC(=O)N[C@@H](CC(C)C)C(=O)N[C@@H](CO)C(=O)N[C@@H](CCCCN)C(=O)NCC(=O)N[C@H]1CSSC[C@@H](C(=O)O)NC(=O)CNC(=O)[C@H](CC(C)C)NC(=O)CNC(=O)[C@H](CO)NC(=O)[C@H](CCC(N)=O)NC(=O)[C@H](CO)NC(=O)CNC(=O)[C@H]([C@@H](C)CC)NC(=O)[C@H](CCCNC(=N)N)NC(=O)[C@H](CC(=O)O)NC(=O)[C@H](CC(C)C)NC(=O)[C@H](CCCCN)NC(=O)[C@H](CC(C)C)NC(=O)CNC(=O)[C@H](Cc2ccccc2)NC1=O [SEQ ID NO: 31] ({Palmitoyl-AEEA-AEEA-AEEA}-[Dap][Dap]GLSKGCFGLKLDRIGSQSGLGC-OH; disulfide 8-24; C-terminus assumed),76.8,14.8,over 5 fold,significant decrease in tumor volume
CCCCCCCCCCCCCCCC(=O)NCCOCCOCC(=O)NCCOCCOCC(=O)NCCOCCOCC(=O)N[C@@H](CCN)C(=O)N[C@@H](CCN)C(=O)NCC(=O)N[C@@H](CC(C)C)C(=O)N[C@@H](CO)C(=O)N[C@@H](CCCCN)C(=O)NCC(=O)N[C@H]1CSSC[C@@H](C(=O)O)NC(=O)CNC(=O)[C@H](CC(C)C)NC(=O)CNC(=O)[C@H](CO)NC(=O)[C@H](CCC(N)=O)NC(=O)[C@H](CO)NC(=O)CNC(=O)[C@H]([C@@H](C)CC)NC(=O)[C@H](CCCNC(=N)N)NC(=O)[C@H](CC(=O)O)NC(=O)[C@H](CC(C)C)NC(=O)[C@H](CCCCN)NC(=O)[C@H](CC(C)C)NC(=O)CNC(=O)[C@H](Cc2ccccc2)NC1=O [SEQ ID NO: 29] ({Palmitoyl-AEEA-AEEA-AEEA}-[Dab][Dab]GLSKGCFGLKLDRIGSQSGLGC-OH; disulfide 8-24; C-terminus assumed),18,8.93,> 10 fold,significant decrease in tumor volume
